Data set [1] relates to aldose reductase. The settings on record: prior art statement; cited from earlier work.
The next data set in a line: Solubilities in water. Type of data set: physicochemical. The settings on record: water.
Data set [2] deals with T1, Aldose Reductase (Bos taurus, UniProt P16116).
T1 construct: The enzyme is extracted from beef eye lenses; from tissue; host or cells: beef eye lenses
The data set can be described thus: Inhibition of aldose reductase in vitro (enzyme from beef eye lenses, glyceraldehyde substrate). As to conditions: in DMF solution. The class given is biochemical. The source says:
Inhibition of Aldose Reductase In Vitro
The reoxidation of NADPH coupled to the enzymatic reaction was followed spectrophotometrically at 340 nm.

In another data set the target is T2, COMT (Rattus norvegicus, UniProt P22734).
T2 construct: The enzyme is extracted from rat liver; from tissue; host or cells: rat liver
T2 sequence (P22734 1-221 isoform P22734-2): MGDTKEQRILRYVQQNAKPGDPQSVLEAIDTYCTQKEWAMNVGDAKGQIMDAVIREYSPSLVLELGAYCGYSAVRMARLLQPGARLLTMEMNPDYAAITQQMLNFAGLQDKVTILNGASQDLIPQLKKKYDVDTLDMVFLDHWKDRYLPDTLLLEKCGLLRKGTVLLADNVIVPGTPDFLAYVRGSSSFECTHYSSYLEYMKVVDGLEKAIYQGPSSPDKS
The experiment in a line: Inhibition of COMT in vitro (enzyme from rat liver, 4-nitrocatechol substrate). The class given is biochemical. As to conditions: in dimethylsulfoxide solution, read-out: percentages of inhibition (COMT). The procedure:
Inhibition of COMT in vitro The enzyme is extracted from rat liver by the method described by Axelrod et al, J. Biol. Chem., 233, 702(1958); its activity is measured in the presence of S-adenosyl methionine and using as substrate 4-nitrocatechol by the method described by Lee et al, J. Pharm. Sci., 66(7), 986(1977). The quantity of 4-nitrocatechol consumed was determined spectrophotometrically at 520 nm in alkaline medium.

The subject of the next data set is carragenin edema. The data set can be described thus: Anti-inflammatory activity: carragenin edema test. Type of data set: in vivo. The settings on record: Rattus norvegicus, ip, substantially alkaline pH solution, read-out: % inhibition of carragenin edema; for inhibition in vivo at 100 mg/kg: 100 mg/kg i.p.; for inhibition in vivo at 200 mg/kg: 200 mg/kg i.p.; for inhibition in vivo at 300 mg/kg: 300 mg/kg i.p. In short, it runs like this: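 Male Wistar EOPS rats receive 0.1 ml of 5% carragenin suspension in physiological serum into the hind-paw metatarsal muscle, with test substance given i.p. in neutralized solution at the same time. Paw edema is measured by plethysmometry at several times after carragenin and reported as % inhibition against pH-matched physiological serum controls.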

The subject of another data set is capillary permeability. The experiment in a line: Capillaroprotecting effects: capillary permeability. The class given is in vivo, conventional male Wistar rats. The procedure: (§1) Capillaroprotecting effects
The capillary permeability was determined by the method of Charlier et al, Arch. Inter. Physiol.

The nature of data set [3]: i.p. toxicity in Swiss EOPS mice, mortality at 14 days. As to conditions: mouse, in vivo, ip, DMSO solution at 1/2, read-out: percentages of mortality at the end of 14 days. As for the experimental part:
The i.p. toxicities of certain compounds of the present invention were determined using male and female Swiss EOPS mice for administrations in DMSO solution at 1/2 under a volume of P/100.

Another data set deals with capillary resistance. The experiment in a line: Capillaroprotecting effects: capillary resistance. The class given is in vivo, male OFA EOPS rats. The procedure: as §1
The capillary resistance was determined by a variant of the method of Charlier et al, Arch. Inter. Physiol.

[4] abbreviates: read-out: Solubilities in water.

The term inhibition denotes the percentage by which the read-out fell short of the control. The term mortality denotes the share of the test organisms that died.

Molecules are shown by their SMILES. Converted amounts (≈) assume the structure as drawn. Where two headings read alike, the source gives them in different places.

For `C[C@@H]1O[C@@H](OC[C@H]2O[C@@H](Oc3c(-c4ccc(OCCO)c(OCCO)c4)oc4cc(OCCO)cc(OCCO)c4c3=O)[C@H](O)[C@@H](O)[C@@H]2O)[C@H](O)[C@H](O)[C@H]1O` [5,7, 3', 4'-tetra-O-hydroxyethyl rutin], the “inhibition of aldose reductase in vitro (in words)” value (from here on “inhibition of aldose reductase”) in the data set with aldose reductase [1] was “practically inactive”.
For the compound `C[C@@H]1O[C@@H](OC[C@H]2O[C@@H](Oc3c(-c4ccc(O)c(O)c4)oc4cc(OCCO)cc(O)c4c3=O)[C@H](O)[C@@H](O)[C@@H]2O)[C@H](O)[C@H](O)[C@H]1O` [7-O-hydroxyethyl rutin], the “inhibition of aldose reductase” value with aldose reductase [1] was “practically inactive”.
`C[C@@H]1O[C@@H](OC[C@H]2O[C@@H](Oc3c(-c4ccc(O)c(O)c4)oc4cc(O)cc(O)c4c3=O)[C@H](O)[C@@H](O)[C@@H]2O)[C@H](O)[C@H](O)[C@H]1O` [Rutin, rutin, reference compound]: the solubility in “Solubilities in water” amounted to 120 µg/mL (≈ 197 µM). In addition, at Aldose Reductase [2] (5.10^-6 mole/l), the “percentages of inhibition (aldose reductase)” value is recorded as 0%. At COMT (10^-3 mole/l), the inhibition at 1000 µM was in the range of 63 to 68%. The inhibition at 10 µM on COMT (10^-5 mole/l) turned out to be 13%. Further, in the data set with aldose reductase [1], the “inhibition of aldose reductase” value is “inhibits aldose reductase in vitro”.
On to `COc1ccc(C2CC(=O)c3c(O)cc(O[C@@H]4O[C@H](CO[C@@H]5O[C@@H](C)[C@H](O)[C@H]6OC(C)(C)O[C@@H]56)[C@@H](O)[C@H](O)[C@H]4O)cc3O2)cc1O` (stereo partly drawn) [No. 18, 7-O-(2,3-O,O-isopropylidene-6-α-L-rhamnosyl-β-D-glucosyl)hesperitin], for which the solubility in the data set “Solubilities in water” (setting [4]) turned out to be 900 µg/mL (≈ 1380 µM). The inhibition in vivo at 100 mg/kg with carragenin edema (1/2 h) came to 0%; with carragenin edema (1 h, 1 h 1/2), 17%; in the data set on carragenin edema (1 h, 1 h), 0%; in the data set with carragenin edema (2 h, 2 h) it was 16%; in the data set on carragenin edema (3 h, 3 h), 13%; in the data set with carragenin edema (4 h, 4 h), 20%. Moreover, the inhibition in vivo at 100 mg/kg in the data set with carragenin edema (5 h, 5 h) was determined as 21%; in the data set on carragenin edema (6 h, 6 h) it was 27%. The inhibition in vivo at 200 mg/kg in the data set on carragenin edema (1/2 h) is 0%; with carragenin edema (1 h, 1 h 1/2), 39%; with carragenin edema (1 h, 1 h) it was 18%; in the data set with carragenin edema (2 h, 2 h), 42%; in the data set on carragenin edema (3 h, 3 h), 46%; in the data set with carragenin edema (4 h, 4 h) it was 52%. The inhibition in vivo at 200 mg/kg in the data set on carragenin edema (5 h, 5 h) was determined as 50%; in the data set with carragenin edema (6 h, 6 h) it was 55%. Also, the inhibition in vivo at 300 mg/kg with carragenin edema (1/2 h) came out at 0%; in the data set with carragenin edema (1 h, 1 h 1/2), 27%; in the data set with carragenin edema (1 h, 1 h) it was 0%; with carragenin edema (2 h, 2 h), 27%; in the data set with carragenin edema (3 h, 3 h) it was 21%; with carragenin edema (4 h, 4 h), 26%. The inhibition in vivo at 300 mg/kg with carragenin edema (5 h, 5 h) was 16%; in the data set with carragenin edema (6 h, 6 h), 16%. Further, the “percentage reduction of capillary permeability” value amounted to 24% in the data set with capillary permeability (10 mg/kg i.p.), 21% in the data set with capillary permeability (50 mg/kg i.p.) and 8% in the data set on capillary permeability (75 mg/kg i.p.). Also, the mortality at 336 h in data set [3] (1000 mg/kg i.p.) and in data set [3] (2000 mg/kg i.p.) was 0% in each case.
On to `CC1(C)OC[C@H]2O[C@@H](Oc3cc4ccc(=O)oc4cc3O)[C@H](O)[C@@H](O)[C@@H]2O1` [No. 15, 6-O-(4,6-O,O-isopropylidene-β-D-glucosyl) esculetol], for which the solubility in the data set “Solubilities in water” (setting [4]) worked out at 9200 µg/mL (≈ 24200 µM). Besides, the inhibition at 100 µM at Aldose Reductase [2] (10^-4 mole/l, read-out: percentages of inhibition (aldose reductase)) was found to be 60%. Also, the inhibition at 10 µM on Aldose Reductase [2] (10^-5 mole/l, read-out: percentages of inhibition (aldose reductase)) was found to be 9%. Moreover, the inhibition in vivo at 200 mg/kg amounted to 18% in the data set on carragenin edema (1/2 h); 20% in the data set with carragenin edema (1 h, 1 h 1/2); 26% in the data set on carragenin edema (1 h, 1 h); 13% in the data set with carragenin edema (2 h, 2 h); 1% in the data set on carragenin edema (3 h, 3 h); 7% with carragenin edema (4 h, 4 h). Besides, the inhibition in vivo at 200 mg/kg with carragenin edema (5 h, 5 h) is 10%; in the data set on carragenin edema (6 h, 6 h) it was 17%. Besides, the “capillary resistance, effect observed” value in the data set on capillary resistance (25 mg/kg i.p.) was determined as 17 ± 11.8 u cm Hg/h; with capillary resistance (50 mg/kg i.p.) it was 20 ± 12.9 u cm Hg/h. Besides, the mortality at 336 h came to 10% in data set [3] (500 mg/kg i.p.), 0% in data set [3] (1000 mg/kg i.p.), 20% in data set [3] (1500 mg/kg i.p.) and 70% in data set [3] (2000 mg/kg i.p.).
As for `C[C@@H]1O[C@@H](OC[C@H]2O[C@@H](Oc3c(-c4ccc(OCCO)c(OCCO)c4)oc4cc(OCCO)cc(O)c4c3=O)[C@H](O)[C@@H](O)[C@@H]2O)[C@H](O)[C@H](O)[C@H]1O` [7, 3', 4'-tri-O-hydroxyethyl rutin], the “inhibition of aldose reductase” value in the data set on aldose reductase [1] was “practically inactive”.

Source of the values: patent US4211772A, “Benzopyran glycoside acetals and ketals” (Laboratoires Sarget, priority 1977, dated 1980).
